Test results: US20240285634A1, “COMPOUND AND METHOD FOR TREATING CHEMOTHERAPY-ASSOCIATED GASTROINTESTINAL SIDE EFFECTS” (ONQUALITY PHARMACEUTICALS CHINA LTD., priority 2021, published 2024)
Structures can show the parent of a compound that is named as a salt.

Key:
[1] = system: Chemotherapeutic agent-caused diarrhea models of Balb/c mice; assay: Relieving effect on diarrhea caused by a chemotherapeutic agent (Examples 1-201); format: in vivo
How it was run: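 Balb/c mice (10/group) given Formula I compound by injection or gavage, then a chemotherapeutic agent to induce diarrhea, with solvent and chemotherapy-only controls. Diarrhea graded 0–3 daily; relative remission rate = % of treated mice graded below the chemotherapy-group average.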

[2] = system: Balb/c mice, diarrhea caused by continuous administration of a chemotherapeutic agent; assay: Relieving effect on diarrhea caused by the continuous administration of a chemotherapeutic agent (Examples 365-384); format: in vivo; conditions: Fluorouracil (5-Fu) intraperitoneal injection 70 mg/kg once a day for 5 days, compound intraperitoneal injection 150 mg/kg single, cycle 9 days
Description: Balb/c mice were fed for 1 week, and then divided into groups. The experiment was divided into a control group, a chemotherapeutic agent group, and a group of the compound as shown in Formula I, each of which comprised 10 mice, to perform the administration experiment, for which the administration dosage, mode, time and frequency were shown in Table 5. The control group: being injected or intragastrically administered with the same solvent as that used in the group of the compound as shown in Formula I (the administration mode and time were shown in Table 5), and then being injected or intragastrically administered with the same solvent as that used in the chemotherapeutic agent group (the administration mode was shown in Table 5); the chemotherapeutic agent group: being injected or intragastrically administered with the same solvent as that used in the group of the compound as shown in Formula I (the administration mode and time were shown in Table 5), and then being injected or intragastrically administered with the chemotherapeutic agent (the type, administration mode, time and dosage were shown in Table 5); the group of the compound as shown in Formula I: being injected or intragastrically administered with the compound as shown in Formula I (the administration mode and time were shown in Table 5), and then being administered with the chemotherapeutic agent (the type, administration mode, time and dosage were shown in Table 5).
The scoring of diarrhea can refer to the method of Akinobu Kurita (Cancer Chemother Pharmacol 2000; 46:211-20.), Grade 0): normal feces; Grade 1: mild diarrhea, the stools is slightly wet and soft; Grade 2: moderate diarrhea, loose stools and mild perianal contamination; Grade 3: severe diarrhea, watery stools and accompanied by severe perianal staining (see FIG. 1). It is regarded as effective remission when the diarrhea grading of mice in the group of the compound as shown in Formula I is reduced compared with the average diarrhea grading of mice in the chemotherapeutic agent group.
The diarrhea grading of mice was observed and recorded every day. At the end of the experiment, the number of mice in the group of the compound as shown in Formula I whose diarrhea grading was lower than that of mice in the chemotherapeutic agent group was recorded. Table 5 lists various animal experiment combinations of chemotherapeutic agents and the compound as shown in Formula I, as well as the corresponding experimental results. (Relative remission rate %=the number of mice in the group of the compound as shown in Formula I whose diarrhea has been effectively relieved/the total number of mice in the group of the compound as shown in Formula I*100%. The establishment rate of diarrhea model in the chemotherapeutic agent group was 50%-80%, that is, about 5-8 of 10 mice developed diarrhea during the experiment, and there were cases of individual mice death or not developing diarrhea.)

Work on `CN1CCN(c2ccc(Nc3ncc4cc5n(c4n3)C3(CCCCC3)CNC5=O)nc2)CC1` [Compound I hydrochloride, Trilaciclib dihydrochloride] yielded a Relative remission rate ([1]; Ex 132, Fluorouracil 100 + irinotecan 200 mg/kg intraperitoneal single, compound 150 mg/kg intraperitoneal single 0.5 h before, cycle 8 days) of 30%, a Relative remission rate ([1]; Ex 133, Fluorouracil 100 + irinotecan 200 mg/kg intraperitoneal single, compound 150 mg/kg intraperitoneal single 6 h before, cycle 8 days) of 60% and a Relative remission rate ([1]; Ex 134, Fluorouracil 100 + irinotecan 200 mg/kg intraperitoneal single, compound 150 mg/kg intraperitoneal single 12 h before, cycle 8 days) of 50%. It also gave a Relative remission rate ([1]; Ex 161, Fluorouracil 50 + oxaliplatin 5 + irinotecan 50 + tetrahydrofolic acid 90 mg/kg intraperitoneal single, compound 150 mg/kg intraperitoneal single 0.5 h before, cycle 7 days) of 70%, a Relative remission rate ([1]; Ex 162, Fluorouracil 50 + oxaliplatin 5 + irinotecan 50 + tetrahydrofolic acid 90 mg/kg intraperitoneal single, compound 150 mg/kg intraperitoneal single 12 h before, cycle 7 days) of 40% and a Relative remission rate ([1]; Ex 194, Topotecan 10 mg/kg intraperitoneal single, compound 100 mg/kg oral single 4 h before, cycle 14 days) of 50%. The Relative remission rate ([1]; Ex 200, Gemcitabine and carboplatin 120 mg/kg intraperitoneal single, compound 100 mg/kg oral single 4 h before, cycle 8 days) was 70%, the “Relative remission rate (%)” value ([2]; Example 373, 2 h before chemotherapeutic agent) was 60% and the “Relative remission rate (%)” value ([2]; Example 374, 4 h before chemotherapeutic agent) was 30%. The “Relative remission rate (%)” value ([2]; Example 375, 8 h before chemotherapeutic agent) was 10%.
